# Data: ChEMBL document CHEMBL5137058, “Therapeutic Strategies to Target the Androgen Receptor” (J Med Chem, 2022)
# pEC50, pIC50, pKi: −log10 of the molar value.
# How the values were obtained:
# LNCaP = assay: Antiproliferative activity against human LNCaP cells; type: functional, cell-based
# [1] = molecular target: T1, Androgen receptor (Homo sapiens) (UniProt P10275); assay: Agonist activity at androgen receptor (unknown origin) at 1 uM relative to control; details: filed as agonist
# T1 sequence (whole entry): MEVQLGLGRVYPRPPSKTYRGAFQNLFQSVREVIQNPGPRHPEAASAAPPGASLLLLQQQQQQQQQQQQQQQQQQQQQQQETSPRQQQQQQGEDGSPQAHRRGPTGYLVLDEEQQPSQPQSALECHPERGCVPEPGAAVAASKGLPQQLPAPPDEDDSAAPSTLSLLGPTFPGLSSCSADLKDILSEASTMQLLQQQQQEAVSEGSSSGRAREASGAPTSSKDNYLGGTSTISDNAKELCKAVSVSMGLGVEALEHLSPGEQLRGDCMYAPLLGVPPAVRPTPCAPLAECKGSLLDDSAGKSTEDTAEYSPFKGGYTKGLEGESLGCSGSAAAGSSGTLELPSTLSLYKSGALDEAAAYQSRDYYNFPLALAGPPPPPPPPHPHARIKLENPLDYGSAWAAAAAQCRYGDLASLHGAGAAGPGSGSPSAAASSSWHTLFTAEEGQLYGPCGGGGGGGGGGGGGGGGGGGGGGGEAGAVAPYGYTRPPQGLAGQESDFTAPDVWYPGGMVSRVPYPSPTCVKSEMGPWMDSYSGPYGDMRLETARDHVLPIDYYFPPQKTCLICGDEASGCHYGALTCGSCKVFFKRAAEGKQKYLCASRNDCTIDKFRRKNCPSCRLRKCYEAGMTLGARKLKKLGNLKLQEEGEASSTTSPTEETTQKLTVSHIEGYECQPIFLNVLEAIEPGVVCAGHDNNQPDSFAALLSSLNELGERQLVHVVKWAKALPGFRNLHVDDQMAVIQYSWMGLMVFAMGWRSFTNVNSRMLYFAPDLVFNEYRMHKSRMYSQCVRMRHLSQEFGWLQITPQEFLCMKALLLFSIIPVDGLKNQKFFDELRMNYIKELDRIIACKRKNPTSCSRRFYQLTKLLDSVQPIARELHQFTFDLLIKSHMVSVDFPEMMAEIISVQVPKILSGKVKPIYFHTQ
# [2] = In vivo antagonist activity at Androgen receptor assessed as reduction in wax ester in golden hamster ear model; type: functional, Cricetinae; design: concentration or dose not given beside the values
# Androgen receptor [3] = molecular target: T2, Androgen receptor (Homo sapiens, UniProt P10275); assay: Antagonist activity at Androgen receptor in human MDA-MB-453 cells measured by SEAP reporter gene assay; type: cell-based
# T2 sequence (P10275 whole entry): T1 sequence (whole entry)
# Androgen receptor [4] = molecular target: T2, Androgen receptor; assay: Antagonist activity at Androgen receptor in human LNCaP cells measured by SEAP reporter gene assay; type: cell-based
# Androgen receptor [5] = molecular target: T2, Androgen receptor; assay: Displacement of [3H]DHT from Androgen receptor expressed in human MDA-MB-453 cells; type: cell-based
# Androgen receptor [6] = molecular target: T2, Androgen receptor; assay: Agonist activity at human Androgen receptor
# Androgen receptor [7] = molecular target: T2, Androgen receptor; assay: Binding affinity to human Androgen receptor
# Androgen receptor [8] = molecular target: Androgen receptor (Mus musculus, UniProt P19091); assay: Agonist activity at Androgen receptor (unknown origin) transfected in mouse C2C12 cells measured by luciferase reporter assay; type: cell-based
# [9] = molecular target: T3, Protein cereblon/Androgen receptor/Cullin-4A (Homo sapiens, UniProt P10275+Q96SW2+Q13619); assay: Protac activity at CRBN/Cullin 4A/Androgen receptor in human VCaP cells assessed as Androgen receptor degradation; type: cell-based
# [10] = molecular target: T3, Protein cereblon/Androgen receptor/Cullin-4A; assay: Protac activity at CRBN/Cullin 4A/Androgen receptor in human LNCaP cells assessed as Androgen receptor degradation; type: cell-based
# [11] = Oral bioavailability in mouse; type: ADME, organism-based; details: in vivo
# [12] = Antiproliferative activity against refractory human prostate cancer cells; type: functional, cell-based; details: Prostate tumor cell line
# Androgen receptor [13] = molecular target: T2, Androgen receptor; assay: Partial agonist activity at human Androgen receptor
# Androgen receptor [14] = molecular target: T2, Androgen receptor; assay: Antagonist activity at Androgen receptor in human MDA-kb2 cells; type: cell-based
# Androgen receptor [15] = molecular target: T2, Androgen receptor; assay: Binding affinity to human Androgen receptor measured by fluorescence polarization assay
# [16] = In vivo agonist activity at Androgen receptor in castrated male rat assessed as increase in prostate weight at 0.75 mg/kg, po administered for 14 days; type: functional; details: time 14 day
# [17] = In vivo agonist activity at Androgen receptor in castrated male rat assessed as increase in levator ani muscle weight at 0.75 mg/kg, po administered for 14 days; type: functional; details: time 14 day
# [18] = tested on: Androgen receptor (Homo sapiens), P10275 [UNDEFINED MUTATION]; assay: Induction of degradation of Androgen receptor splice variant 3 (unknown origin) at 7.5 uM
# [19] = molecular target: T1, Androgen receptor (Homo sapiens); assay: Induction of degradation of Androgen receptor (unknown origin) at 7.5 uM
# [20] = molecular target: T1, Androgen receptor (Homo sapiens); assay: Agonist activity at human Androgen receptor expressed in human MDA-MB-453 cells cotransfected with MMTV-Luc assessed as transactivation modulation of AR measured by luciferase reporter assay relative to control; type: cell-based; details: filed as agonist
# Androgen receptor [21] = molecular target: T2, Androgen receptor; assay: Agonist activity at human Androgen receptor expressed in human MDA-MB-453 cells cotransfected with MMTV-Luc assessed as transactivation modulation of AR measured by luciferase reporter assay; type: cell-based
# Androgen receptor [22] = molecular target: T2, Androgen receptor; assay: Displacement of [3H]methyltrienolone from Androgen receptor expressed in human MDA-MB-453 cells; type: cell-based
# Rattus norvegicus [23] = assay: Anti-androgenic activity in testosterone-treated castrated rat assessed as reduction in prostate weight at 2 mg administered orally per day for 5 days; type: functional; design: Activity: scale not given: the % may be the effect or the level left; details: route po, time 5 day
# Rattus norvegicus [24] = assay: Anti-androgenic activity in male Wistar rat assessed as decrease in ventral prostate weight at 10 mg/kg, po administered for 15 days; type: functional; design: Activity: scale not given: the % may be the effect or the level left; details: time 15 day
# [25] = molecular target: T1, Androgen receptor (Homo sapiens); assay: Induction of degradation of Androgen receptor in human LNCaP cells; type: cell-based
# T3 sequence (Q96SW2 whole entry, one chain of several): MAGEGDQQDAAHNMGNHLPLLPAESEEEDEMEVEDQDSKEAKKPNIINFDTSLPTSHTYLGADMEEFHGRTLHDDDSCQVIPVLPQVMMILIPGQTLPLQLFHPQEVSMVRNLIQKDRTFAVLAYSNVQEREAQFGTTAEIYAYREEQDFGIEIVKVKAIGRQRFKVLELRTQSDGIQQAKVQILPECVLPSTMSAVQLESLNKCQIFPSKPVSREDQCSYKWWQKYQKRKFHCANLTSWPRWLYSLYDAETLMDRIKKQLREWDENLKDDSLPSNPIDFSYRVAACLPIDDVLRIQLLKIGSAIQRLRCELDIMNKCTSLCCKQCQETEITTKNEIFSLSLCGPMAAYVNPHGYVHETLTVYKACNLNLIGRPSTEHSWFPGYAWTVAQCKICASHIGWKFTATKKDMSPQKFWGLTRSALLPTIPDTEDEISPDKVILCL
# T3 sequence (Q13619 whole entry, one chain of several): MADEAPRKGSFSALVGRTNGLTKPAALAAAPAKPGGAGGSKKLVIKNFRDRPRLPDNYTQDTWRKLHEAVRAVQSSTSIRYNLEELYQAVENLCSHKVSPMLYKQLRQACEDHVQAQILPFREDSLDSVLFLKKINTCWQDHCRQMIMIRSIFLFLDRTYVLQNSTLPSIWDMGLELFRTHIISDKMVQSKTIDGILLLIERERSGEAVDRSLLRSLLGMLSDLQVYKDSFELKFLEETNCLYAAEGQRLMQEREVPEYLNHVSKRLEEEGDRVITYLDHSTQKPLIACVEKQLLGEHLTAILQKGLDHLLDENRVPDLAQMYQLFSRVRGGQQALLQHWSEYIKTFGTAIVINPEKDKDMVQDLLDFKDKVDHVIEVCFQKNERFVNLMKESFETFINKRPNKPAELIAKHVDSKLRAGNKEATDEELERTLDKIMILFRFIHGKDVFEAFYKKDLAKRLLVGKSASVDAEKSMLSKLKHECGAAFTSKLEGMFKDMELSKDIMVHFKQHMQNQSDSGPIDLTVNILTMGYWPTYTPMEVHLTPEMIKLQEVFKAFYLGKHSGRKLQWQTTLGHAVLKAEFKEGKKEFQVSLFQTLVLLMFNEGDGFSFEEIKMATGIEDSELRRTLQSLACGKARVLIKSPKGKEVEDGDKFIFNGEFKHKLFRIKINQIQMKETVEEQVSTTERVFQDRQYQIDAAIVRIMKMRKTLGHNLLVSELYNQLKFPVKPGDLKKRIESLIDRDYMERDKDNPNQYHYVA
# Chain of Androgen receptor (Mus musculus, UniProt P19091) (P19091 whole entry): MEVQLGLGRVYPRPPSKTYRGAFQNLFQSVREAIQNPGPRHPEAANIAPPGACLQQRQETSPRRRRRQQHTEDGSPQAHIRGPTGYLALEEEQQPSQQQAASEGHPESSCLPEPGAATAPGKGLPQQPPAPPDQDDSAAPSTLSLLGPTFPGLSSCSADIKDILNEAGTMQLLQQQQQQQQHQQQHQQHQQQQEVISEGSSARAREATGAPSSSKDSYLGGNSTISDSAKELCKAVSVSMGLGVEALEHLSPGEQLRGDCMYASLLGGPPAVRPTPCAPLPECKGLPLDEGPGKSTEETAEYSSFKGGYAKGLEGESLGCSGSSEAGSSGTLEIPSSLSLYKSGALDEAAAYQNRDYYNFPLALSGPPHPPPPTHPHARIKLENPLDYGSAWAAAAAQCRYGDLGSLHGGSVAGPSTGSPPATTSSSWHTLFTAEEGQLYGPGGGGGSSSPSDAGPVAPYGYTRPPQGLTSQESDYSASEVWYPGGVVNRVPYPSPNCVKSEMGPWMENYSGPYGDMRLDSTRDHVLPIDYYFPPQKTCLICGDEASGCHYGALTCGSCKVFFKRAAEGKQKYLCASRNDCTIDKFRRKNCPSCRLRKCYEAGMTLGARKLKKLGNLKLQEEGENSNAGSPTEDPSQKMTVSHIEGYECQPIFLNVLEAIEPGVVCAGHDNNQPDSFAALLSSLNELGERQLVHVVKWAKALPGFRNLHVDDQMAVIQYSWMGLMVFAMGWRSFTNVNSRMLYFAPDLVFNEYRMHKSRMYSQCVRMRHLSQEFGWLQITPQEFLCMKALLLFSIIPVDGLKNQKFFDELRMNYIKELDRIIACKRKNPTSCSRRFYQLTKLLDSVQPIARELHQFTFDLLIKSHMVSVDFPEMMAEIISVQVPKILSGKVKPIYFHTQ
smiles,measurement,setting,value
CC(O)(CS(=O)(=O)c1ccc(F)cc1)C(=O)Nc1ccc(C#N)c(C(F)(F)F)c1 (centres undefined) [BICALUTAMIDE],pIC50,LNCaP,6.80
CC1(C)CN(CCC#N)C(=O)[C@@H]1Oc1ccc(C#N)c(Cl)c1,Activity,[1],89%
Cc1ccccc1Sc1ccc(C#N)cc1Cl,Activity,[2],>80%
CC(C)N1C[C@@]2(C)O[C@](C)(C1)[C@H]1C(=O)N(c3ccc(C#N)c(C(F)(F)F)c3)C(=O)[C@H]12,pIC50,Androgen receptor [3],7.49
same,pIC50,Androgen receptor [4],6.90
same,pKi,Androgen receptor [5],7.85
N#Cc1ccc(O[C@@H]2CCCC[C@H]2C#N)cc1C(F)(F)F,Activity,[2],64%
CC(C)(C)OC(=O)c1cccc2oc(=O)c3c(ccc4[nH]c(=O)cc(C(F)(F)F)c43)c12,pEC50,Androgen receptor [6],8.96
same,pKi,Androgen receptor [7],8.06
CO[C@@H]1C(c2ccc(C#N)c(Cl)c2C)=NN2CC[C@H](O)[C@@H]12,pEC50,Androgen receptor [8],9.30
CN(c1ccc(C#N)c(Cl)c1)[C@H]1CC[C@H](NC(=O)c2ccc(N3CCN(C4CN(c5ccc6c(c5)C(=O)N(C5CCC(=O)NC5=O)C6=O)C4)CC3)cc2)CC1 (some centres undefined),DC50,[9],< 0.1 nM
same,DC50,[10],< 0.1 nM
same,bioavailability,[11],51%
COc1cc(N2C(=O)C(C)(C)c3cc(-c4cccnc4OC)ccc32)ccc1C#N,pIC50,[12],7.10
C[C@@]1(c2ccc(O)cc2)NC(=O)N(c2ccc(C#N)c(C(F)(F)F)c2)C1=O,pIC50,Androgen receptor [13],9.05
N#Cc1ccc(-c2ccccc2O)cc1C(F)(F)F,Activity,[2],86%
same,pIC50,Androgen receptor [14],9.70
Cc1c(N[C@@H](c2ccc(-c3ccc(C#N)cc3)o2)[C@H](C)O)ccc(C#N)c1Cl,pKi,Androgen receptor [15],8.15
Cc1c(N2C3CCC2CC(C)(O)C3)ccc(C#N)c1Cl (centres undefined),Activity,[16],21%
same,Activity,[17],68%
same,pIC50,Androgen receptor [7],9.00
CC1(C)[C@H](NC(=O)c2ccc(N3CCN(CC4CCN(c5ccc6c(c5)C(=O)N(C5CCC(=O)NC5=O)C6=O)CC4)CC3)cc2)C(C)(C)[C@H]1Oc1ccc(C#N)c(Cl)c1 (some centres undefined),DC50,[9],0.28 nM
same,DC50,[10],8.3 nM
same,bioavailability,[11],67%
N#Cc1ccc(N2C(=O)[C@H]3[C@@H]4C[C@@H](CN4C(=O)Oc4ccc(F)cc4)N3C2=O)cc1C(F)(F)F,pIC50,Androgen receptor [3],6.46
same,pIC50,Androgen receptor [4],5.41
same,pKi,Androgen receptor [5],7.74
C[C@@]12O[C@@](C)(C[C@H]1O)[C@@H]1C(=O)N(c3ccc(C#N)c(I)c3)C(=O)[C@@H]12,pIC50,Androgen receptor [3],7.72
same,pKi,Androgen receptor [5],8.62
COc1ccc(/C=C/C(=O)/C=C(O)/C=C/c2ccc(OC)c(OC)c2)cc1OC,Activity,[18],> 80%
same,Activity,[19],> 80%
N#Cc1ccc(N2C(=O)N[C@@](CO)(c3ccccc3)C2=O)cc1C(F)(F)F,pIC50,Androgen receptor [13],7.89
CN1C(=O)C(F)=C[C@]2(C)[C@H]3CC[C@]4(C)[C@@H](O)/C(=C/c5cncnc5)C[C@H]4[C@@H]3CC[C@@H]12,Activity,[20],141%
same,pEC50,Androgen receptor [21],7.77
same,pIC50,Androgen receptor [22],7.23
CC(O)(c1nc2cc(Cl)c(Cl)cc2[nH]1)C(F)(F)F (centres undefined),ID50,Rattus norvegicus [23],0.32 mg/day
same,Activity,Rattus norvegicus [23]; at 2 mg,96%
CC(c1ccccc1)N(C)c1ccc(C#N)c(C(F)(F)F)n1 (centres undefined),Activity,[2],83%
same,pIC50,Androgen receptor [14],7.35
same,pIC50,Androgen receptor [7],7.70
C[C@]12COC(=O)C[C@@H]1CC[C@@H]1[C@@H]2CC[C@@]2(C)[C@H]1CC[C@]2(C)O [OXANDROLONE],pKi,Androgen receptor [7],7.21
C[C@@H]1CN(c2ccc(C#N)c(C(F)(F)F)c2)[C@@H](C)CN1C(=O)Nc1ccc(C(F)(F)F)nc1,ED50,"Rattus norvegicus [24]; Rattus norvegicus, Wistar, 360 h",2.2 mg/kg/day
same,Activity,Rattus norvegicus [24]; dose 10 mg/kg,67%
CC1(C)C(=O)N(c2ccc(C#N)c(C(F)(F)F)c2)C(=S)N1CCCC(=O)NCCOCCOC(=O)CC12CC3CC(CC(C3)C1)C2,Activity,[25],> 50%
